Measured values taken from article PMC7385619, “A triple action CDK4/6-PI3K-BET inhibitor with augmented cancer cell cytotoxicity” (Cell Discovery, 2020).

Tests used:
Experiment in all cases: KINOMEscan assay (Eurofins DiscoverX)
Format in all cases: binding
kinome (kinase panel) [1] = molecular target: T1, kinome (kinase panel) (Homo sapiens, UniProt P15056, V600E); settings: […]; 1000 nM; read-out: Percent Control
T1 construct: purchased Eurofins DiscoverX

kinome (kinase panel) [2] = molecular target: T2, kinome (kinase panel) (Homo sapiens, UniProt Q15139); settings: PRKD1; 1000 nM; read-out: Percent Control
T2 construct: purchased Eurofins DiscoverX

kinome (kinase panel) [3] = molecular target: T3, kinome (kinase panel) (Homo sapiens, UniProt P29320); settings: EPHA3; 1000 nM; read-out: Percent Control
T3 construct: purchased Eurofins DiscoverX

kinome (kinase panel) [4] = molecular target: T4, kinome (kinase panel) (Homo sapiens, UniProt Q13131); settings: AMPK-alpha1 (Entrez PRKAA1); 1000 nM; read-out: Percent Control
T4 construct: purchased Eurofins DiscoverX

kinome (kinase panel) [5] = molecular target: T5, kinome (kinase panel) (Homo sapiens, UniProt P21127); settings: CDC2L1 (Entrez CDK11B); 1000 nM; read-out: Percent Control
T5 construct: purchased Eurofins DiscoverX

kinome (kinase panel) [6] = molecular target: T6, kinome (kinase panel) (Homo sapiens, UniProt P49841); settings: GSK3B; 1000 nM; read-out: Percent Control
T6 construct: purchased Eurofins DiscoverX

kinome (kinase panel) [7] = molecular target: T7, kinome (kinase panel) (Homo sapiens, UniProt O96017); settings: CHEK2; 1000 nM; read-out: Percent Control
T7 construct: purchased Eurofins DiscoverX

kinome (kinase panel) [8] = molecular target: T8, kinome (kinase panel) (Homo sapiens, UniProt O43353); settings: RIPK2; 1000 nM; read-out: Percent Control
T8 construct: purchased Eurofins DiscoverX

kinome (kinase panel) [9] = molecular target: T9, kinome (kinase panel) (Homo sapiens, UniProt O00141); settings: SGK (SGK1); 1000 nM; read-out: Percent Control
T9 construct: purchased Eurofins DiscoverX

kinome (kinase panel) [10] = molecular target: T10, kinome (kinase panel) (Homo sapiens, UniProt Q15303); settings: ERBB4; 1000 nM; read-out: Percent Control
T10 construct: purchased Eurofins DiscoverX

kinome (kinase panel) [11] = molecular target: T11, kinome (kinase panel) (Homo sapiens, UniProt O60285); settings: ARK5 (Entrez NUAK1); 1000 nM; read-out: Percent Control
T11 construct: purchased Eurofins DiscoverX

kinome (kinase panel) [12] = molecular target: T12, kinome (kinase panel) (Homo sapiens, UniProt Q9UM73, C1156Y); settings: […]; 1000 nM; read-out: Percent Control
T12 construct: purchased Eurofins DiscoverX

kinome (kinase panel) [13] = molecular target: T13, kinome (kinase panel) (Homo sapiens, UniProt Q16539); settings: p38-alpha (Entrez MAPK14); 1000 nM; read-out: Percent Control
T13 construct: purchased Eurofins DiscoverX

kinome (kinase panel) [14] = molecular target: T14, kinome (kinase panel) (Homo sapiens, UniProt O75116); settings: ROCK2; 1000 nM; read-out: Percent Control
T14 construct: purchased Eurofins DiscoverX

kinome (kinase panel) [15] = molecular target: T15, kinome (kinase panel) (Homo sapiens, UniProt P00519, F317I)
T15 construct: purchased Eurofins DiscoverX

kinome (kinase panel) [16] = molecular target: T16, kinome (kinase panel) (Homo sapiens, UniProt P10721, D816V); settings: […]; 1000 nM; read-out: Percent Control
T16 construct: purchased Eurofins DiscoverX

kinome (kinase panel) [17] = molecular target: T17, kinome (kinase panel) (Homo sapiens, UniProt Q96GD4); settings: AURKB; 1000 nM; read-out: Percent Control
T17 construct: purchased Eurofins DiscoverX

kinome (kinase panel) [18] = molecular target: T18, kinome (kinase panel) (Homo sapiens, UniProt Q9H2G2); settings: SLK; 1000 nM; read-out: Percent Control
T18 construct: purchased Eurofins DiscoverX

kinome (kinase panel) [19] = molecular target: T19, kinome (kinase panel) (Homo sapiens, UniProt P51955); settings: NEK2; 1000 nM; read-out: Percent Control
T19 construct: purchased Eurofins DiscoverX

kinome (kinase panel) [20] = molecular target: T20, kinome (kinase panel) (Homo sapiens, UniProt P36507); settings: MEK2 (Entrez MAP2K2); 1000 nM; read-out: Percent Control
T20 construct: purchased Eurofins DiscoverX

kinome (kinase panel) [21] = molecular target: T21, kinome (kinase panel) (Homo sapiens, UniProt P00533, T790M); settings: […]; 1000 nM; read-out: Percent Control
T21 construct: purchased Eurofins DiscoverX

kinome (kinase panel) [22] = molecular target: T22, kinome (kinase panel) (Homo sapiens, UniProt Q9H4A3); settings: WNK1; 1000 nM; read-out: Percent Control
T22 construct: purchased Eurofins DiscoverX

kinome (kinase panel) [23] = molecular target: T23, kinome (kinase panel) (Homo sapiens, UniProt P15056); settings: BRAF; 1000 nM; read-out: Percent Control
T23 construct: purchased Eurofins DiscoverX

kinome (kinase panel) [24] = molecular target: T24, kinome (kinase panel) (Homo sapiens, UniProt P07332); settings: FES; 1000 nM; read-out: Percent Control
T24 construct: purchased Eurofins DiscoverX

kinome (kinase panel) [25] = molecular target: T25, kinome (kinase panel) (Homo sapiens, UniProt Q05397); settings: FAK (Entrez PTK2); 1000 nM; read-out: Percent Control
T25 construct: purchased Eurofins DiscoverX

kinome (kinase panel) [26] = molecular target: T26, kinome (kinase panel) (Homo sapiens, UniProt P00533, L858R); settings: […]; 1000 nM; read-out: Percent Control
T26 construct: purchased Eurofins DiscoverX

kinome (kinase panel) [27] = molecular target: T27, kinome (kinase panel) (Homo sapiens, UniProt P27361); settings: ERK1 (Entrez MAPK3); 1000 nM; read-out: Percent Control
T27 construct: purchased Eurofins DiscoverX

kinome (kinase panel) [28] = molecular target: T28, kinome (kinase panel) (Homo sapiens, UniProt P42336, I800L); settings: read-out: Percent Control
T28 construct: purchased Eurofins DiscoverX

kinome (kinase panel) [29] = molecular target: T29, kinome (kinase panel) (Homo sapiens, UniProt P78368); settings: CSNK1G2; 1000 nM; read-out: Percent Control
T29 construct: purchased Eurofins DiscoverX

kinome (kinase panel) [30] = molecular target: T30, kinome (kinase panel) (Homo sapiens, UniProt P42336, M1043I); settings: read-out: Percent Control
T30 construct: purchased Eurofins DiscoverX

kinome (kinase panel) [31] = molecular target: T31, kinome (kinase panel) (Homo sapiens, UniProt P80192); settings: MLK1 (Entrez MAP3K9); 1000 nM; read-out: Percent Control
T31 construct: purchased Eurofins DiscoverX

kinome (kinase panel) [32] = molecular target: T32, kinome (kinase panel) (Homo sapiens, UniProt Q13882); settings: BRK (Entrez PTK6); 1000 nM; read-out: Percent Control
T32 construct: purchased Eurofins DiscoverX

kinome (kinase panel) [33] = molecular target: T33, kinome (kinase panel) (Homo sapiens, UniProt O14730); settings: RIOK3; 1000 nM; read-out: Percent Control
T33 construct: purchased Eurofins DiscoverX
T33 sequence (O14730 whole entry): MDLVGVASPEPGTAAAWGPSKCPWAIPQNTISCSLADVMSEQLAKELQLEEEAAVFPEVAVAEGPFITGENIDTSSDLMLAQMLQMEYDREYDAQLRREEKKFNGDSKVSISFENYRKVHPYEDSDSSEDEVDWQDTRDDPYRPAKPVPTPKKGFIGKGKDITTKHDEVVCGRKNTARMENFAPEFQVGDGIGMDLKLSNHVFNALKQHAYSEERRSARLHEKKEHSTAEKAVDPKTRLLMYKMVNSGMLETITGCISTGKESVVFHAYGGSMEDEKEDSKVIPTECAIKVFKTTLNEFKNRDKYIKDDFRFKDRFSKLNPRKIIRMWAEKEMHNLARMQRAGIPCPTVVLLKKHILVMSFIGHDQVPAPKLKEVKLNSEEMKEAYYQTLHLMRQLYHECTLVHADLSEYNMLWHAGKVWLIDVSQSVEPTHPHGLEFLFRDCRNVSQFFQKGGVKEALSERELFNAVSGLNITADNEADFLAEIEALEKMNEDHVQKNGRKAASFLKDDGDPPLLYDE

T15 sequence (P00519 whole entry F317I): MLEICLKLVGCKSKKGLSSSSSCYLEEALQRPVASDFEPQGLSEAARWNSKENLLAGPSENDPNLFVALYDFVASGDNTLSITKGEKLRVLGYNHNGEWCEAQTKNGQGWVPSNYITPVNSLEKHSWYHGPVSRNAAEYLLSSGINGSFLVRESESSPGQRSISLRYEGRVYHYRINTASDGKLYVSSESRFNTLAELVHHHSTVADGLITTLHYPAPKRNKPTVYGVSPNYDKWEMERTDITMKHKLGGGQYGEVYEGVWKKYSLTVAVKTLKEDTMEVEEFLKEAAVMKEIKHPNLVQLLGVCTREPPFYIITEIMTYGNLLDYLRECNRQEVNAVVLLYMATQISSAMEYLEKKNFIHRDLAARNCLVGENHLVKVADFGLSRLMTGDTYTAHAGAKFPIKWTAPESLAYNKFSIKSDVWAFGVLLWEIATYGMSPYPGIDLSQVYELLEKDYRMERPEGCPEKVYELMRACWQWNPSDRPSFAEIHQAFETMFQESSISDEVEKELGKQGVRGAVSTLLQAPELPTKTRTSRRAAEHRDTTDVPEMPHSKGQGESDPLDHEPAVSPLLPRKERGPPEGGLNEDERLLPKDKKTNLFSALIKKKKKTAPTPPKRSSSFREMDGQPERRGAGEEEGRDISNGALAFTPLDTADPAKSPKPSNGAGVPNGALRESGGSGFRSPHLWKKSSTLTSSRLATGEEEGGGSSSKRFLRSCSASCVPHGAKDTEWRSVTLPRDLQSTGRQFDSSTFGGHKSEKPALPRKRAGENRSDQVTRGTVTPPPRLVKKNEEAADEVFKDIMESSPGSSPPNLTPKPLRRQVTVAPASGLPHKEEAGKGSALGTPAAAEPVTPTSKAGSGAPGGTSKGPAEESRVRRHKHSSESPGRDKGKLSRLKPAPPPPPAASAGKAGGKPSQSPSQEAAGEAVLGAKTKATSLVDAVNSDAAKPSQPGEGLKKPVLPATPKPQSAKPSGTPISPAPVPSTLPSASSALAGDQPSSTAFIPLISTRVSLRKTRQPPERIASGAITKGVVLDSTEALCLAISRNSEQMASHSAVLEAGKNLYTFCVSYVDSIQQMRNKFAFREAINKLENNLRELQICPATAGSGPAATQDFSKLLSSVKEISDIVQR
T31 sequence (P80192 whole entry): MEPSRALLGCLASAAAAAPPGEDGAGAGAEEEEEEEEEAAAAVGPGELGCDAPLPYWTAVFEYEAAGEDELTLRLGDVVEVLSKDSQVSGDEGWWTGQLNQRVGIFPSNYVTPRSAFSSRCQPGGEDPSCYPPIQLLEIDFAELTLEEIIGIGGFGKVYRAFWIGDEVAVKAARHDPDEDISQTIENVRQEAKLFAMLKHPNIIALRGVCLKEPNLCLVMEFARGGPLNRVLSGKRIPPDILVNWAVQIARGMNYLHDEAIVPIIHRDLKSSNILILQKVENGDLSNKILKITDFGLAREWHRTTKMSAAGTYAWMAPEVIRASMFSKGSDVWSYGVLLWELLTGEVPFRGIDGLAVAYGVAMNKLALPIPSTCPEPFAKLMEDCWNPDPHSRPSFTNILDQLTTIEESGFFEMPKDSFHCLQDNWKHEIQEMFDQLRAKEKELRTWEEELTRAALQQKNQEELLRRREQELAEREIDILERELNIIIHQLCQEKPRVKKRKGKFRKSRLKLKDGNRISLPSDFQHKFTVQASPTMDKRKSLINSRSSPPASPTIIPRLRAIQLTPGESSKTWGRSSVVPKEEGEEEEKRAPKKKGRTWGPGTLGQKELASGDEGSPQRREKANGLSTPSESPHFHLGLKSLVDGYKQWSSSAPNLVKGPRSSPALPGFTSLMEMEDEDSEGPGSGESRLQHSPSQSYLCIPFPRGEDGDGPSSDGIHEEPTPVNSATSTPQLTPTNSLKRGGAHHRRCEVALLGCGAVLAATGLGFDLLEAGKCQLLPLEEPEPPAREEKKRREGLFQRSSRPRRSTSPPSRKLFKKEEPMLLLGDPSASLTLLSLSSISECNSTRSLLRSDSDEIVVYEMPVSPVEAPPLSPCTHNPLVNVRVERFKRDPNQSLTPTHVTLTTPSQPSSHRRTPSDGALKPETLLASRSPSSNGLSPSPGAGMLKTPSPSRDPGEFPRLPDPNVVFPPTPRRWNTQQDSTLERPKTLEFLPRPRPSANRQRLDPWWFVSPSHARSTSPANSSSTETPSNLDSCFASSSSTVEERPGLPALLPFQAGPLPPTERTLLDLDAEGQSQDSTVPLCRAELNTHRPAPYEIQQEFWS
T13 sequence (Q16539 whole entry): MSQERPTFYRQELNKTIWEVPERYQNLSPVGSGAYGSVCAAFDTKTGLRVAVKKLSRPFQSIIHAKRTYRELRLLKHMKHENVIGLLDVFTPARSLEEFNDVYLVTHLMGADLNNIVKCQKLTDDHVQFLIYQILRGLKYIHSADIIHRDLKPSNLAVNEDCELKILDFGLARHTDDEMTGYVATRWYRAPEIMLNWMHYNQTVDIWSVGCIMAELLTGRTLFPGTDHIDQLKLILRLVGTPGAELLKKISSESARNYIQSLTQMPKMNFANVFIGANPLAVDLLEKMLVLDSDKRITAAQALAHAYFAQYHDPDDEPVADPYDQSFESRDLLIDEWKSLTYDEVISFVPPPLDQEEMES
T28 sequence (P42336 whole entry I800L): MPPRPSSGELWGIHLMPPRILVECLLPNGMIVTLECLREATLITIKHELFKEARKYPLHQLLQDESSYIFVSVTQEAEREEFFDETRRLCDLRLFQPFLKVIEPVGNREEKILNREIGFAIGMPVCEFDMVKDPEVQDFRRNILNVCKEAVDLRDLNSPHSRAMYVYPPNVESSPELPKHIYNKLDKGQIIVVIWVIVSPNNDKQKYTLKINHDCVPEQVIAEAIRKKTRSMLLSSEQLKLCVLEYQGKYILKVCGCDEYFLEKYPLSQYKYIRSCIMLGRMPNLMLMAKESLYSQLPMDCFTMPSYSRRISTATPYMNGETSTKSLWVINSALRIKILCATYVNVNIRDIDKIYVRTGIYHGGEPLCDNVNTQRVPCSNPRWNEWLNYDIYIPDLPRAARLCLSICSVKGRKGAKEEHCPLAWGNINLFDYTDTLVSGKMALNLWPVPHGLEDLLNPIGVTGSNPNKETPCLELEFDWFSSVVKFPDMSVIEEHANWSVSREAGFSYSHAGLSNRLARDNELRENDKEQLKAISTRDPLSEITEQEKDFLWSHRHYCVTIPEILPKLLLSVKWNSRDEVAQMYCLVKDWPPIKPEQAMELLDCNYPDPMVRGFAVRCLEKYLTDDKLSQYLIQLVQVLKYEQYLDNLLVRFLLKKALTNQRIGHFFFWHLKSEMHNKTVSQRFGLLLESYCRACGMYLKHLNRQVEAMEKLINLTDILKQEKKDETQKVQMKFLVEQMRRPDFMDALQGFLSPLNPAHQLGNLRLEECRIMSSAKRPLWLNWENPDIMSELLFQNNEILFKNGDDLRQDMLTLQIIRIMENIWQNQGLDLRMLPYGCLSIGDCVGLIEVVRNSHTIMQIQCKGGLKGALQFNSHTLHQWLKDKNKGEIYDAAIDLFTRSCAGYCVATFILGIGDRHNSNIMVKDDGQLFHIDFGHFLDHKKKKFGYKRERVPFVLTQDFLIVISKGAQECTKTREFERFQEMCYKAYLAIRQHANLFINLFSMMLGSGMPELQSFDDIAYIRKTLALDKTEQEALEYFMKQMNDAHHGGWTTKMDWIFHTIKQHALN
T8 sequence (O43353 whole entry): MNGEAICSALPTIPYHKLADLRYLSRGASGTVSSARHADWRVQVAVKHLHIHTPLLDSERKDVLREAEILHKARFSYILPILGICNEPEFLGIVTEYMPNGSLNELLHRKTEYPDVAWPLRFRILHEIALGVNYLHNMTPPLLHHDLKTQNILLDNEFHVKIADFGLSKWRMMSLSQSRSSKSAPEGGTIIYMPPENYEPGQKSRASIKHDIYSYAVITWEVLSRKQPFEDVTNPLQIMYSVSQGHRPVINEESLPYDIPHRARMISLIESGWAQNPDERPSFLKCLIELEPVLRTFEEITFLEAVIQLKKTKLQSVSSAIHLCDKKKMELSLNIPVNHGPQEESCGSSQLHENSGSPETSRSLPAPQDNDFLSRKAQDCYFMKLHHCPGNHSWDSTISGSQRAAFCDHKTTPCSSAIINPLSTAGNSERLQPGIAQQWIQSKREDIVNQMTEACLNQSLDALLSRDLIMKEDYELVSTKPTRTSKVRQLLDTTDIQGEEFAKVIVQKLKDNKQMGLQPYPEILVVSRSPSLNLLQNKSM
T30 sequence (P42336 whole entry M1043I): as the sequence (P42336 whole entry I800L) above, with L800I, M1043I counted along it

## CN(C)C(=O)c1cc2cnc(Nc3ccc(-c4csc5c(=O)cc(N6CCOCC6)oc45)cc3)nc2n1C1CCCC1 [SRX3177]
Kinome (kinase panel) [1]
  remaining binding at 1 µM: 64%
Kinome (kinase panel) [2]
  remaining binding at 1 µM: 100%
Kinome (kinase panel) [3]
  remaining binding at 1 µM: 90%
Kinome (kinase panel) [4]
  remaining binding at 1 µM: 100%
Kinome (kinase panel) [5]
  remaining binding at 1 µM: 99%
Kinome (kinase panel) [6]
  remaining binding at 1 µM: 75%
Kinome (kinase panel) [7]
  remaining binding at 1 µM: 94%
Kinome (kinase panel) [8]
  remaining binding at 1 µM: 93%
Kinome (kinase panel) [9]
  remaining binding at 1 µM: 56%
Kinome (kinase panel) [10]
  remaining binding at 1 µM: 100%
Kinome (kinase panel) [11]
  remaining binding at 1 µM: 86%
Kinome (kinase panel) [12]
  remaining binding at 1 µM: 77%
Kinome (kinase panel) [13]
  remaining binding at 1 µM: 100%
Kinome (kinase panel) [14]
  remaining binding at 1 µM: 46%
Kinome (kinase panel) [15]
  Percent Control: 96
Kinome (kinase panel) [15]; read-out: Percent Control
  remaining binding at 1 µM: 81%
Kinome (kinase panel) [16]
  remaining binding at 1 µM: 23%
Kinome (kinase panel) [17]
  remaining binding at 1 µM: 4.9%
Kinome (kinase panel) [18]
  remaining binding at 1 µM: 38%
Kinome (kinase panel) [19]
  remaining binding at 1 µM: 90%
Kinome (kinase panel) [20]
  remaining binding at 1 µM: 50%
Kinome (kinase panel) [21]
  remaining binding at 1 µM: 46%
Kinome (kinase panel) [22]
  remaining binding at 1 µM: 93%
Kinome (kinase panel) [23]
  remaining binding at 1 µM: 79%
Kinome (kinase panel) [24]
  remaining binding at 1 µM: 88%
Kinome (kinase panel) [25]
  remaining binding at 1 µM: 90%
Kinome (kinase panel) [26]
  remaining binding at 1 µM: 100%
Kinome (kinase panel) [27]
  remaining binding at 1 µM: 100%
Kinome (kinase panel) [28]
  remaining binding at 1 µM: 8.9%
Kinome (kinase panel) [29]
  remaining binding at 1 µM: 96%
Kinome (kinase panel) [30]
  remaining binding at 1 µM: 70%
Kinome (kinase panel) [31]
  remaining binding at 1 µM: 62%
Kinome (kinase panel) [32]
  remaining binding at 1 µM: 100%
Kinome (kinase panel) [33]
  remaining binding at 1 µM: 21%
